Reference: article PMC11178908, “Diabetes drugs activate neuroprotective pathways in models of neonatal hypoxic-ischemic encephalopathy” (EMBO Molecular Medicine, 2024)
Values joined by “and” are separate entries in the source; they are usually repeats but may differ in a detail not shown here. Identical values can stand only once. “Also recorded” adds a separate entry of the source.

Experiments:
[1] = test system: GLP1-R; test: cAMP content in the brain of naïve P10 mice (blood-brain barrier crossing); assay type: in vivo
Description: Brains of P10 naive mice or treated at the different time points were collected (n = 4 per group). All samples were processed using AMP direct immunoassay kit as per manufacturer’s instructions (Abcam).

[2] = Blood glucose / hypoglycaemia; assay type: in vivo, P10 CD1 mice; conditions: for blood glucose: HI P10 mice
Description: (§1) Thereafter, a dosing experiment was conducted to evaluate the optimal dose for semaglutide in the same neonatal HIE model (Fig. EV2F) and brain protection was measured using a macroscopic scoring system to assess the size of the infarct.
Blood glucose levels (mmol/l) were measured using a blood glucose monitor (CodeFree, SD Biosensor) in naive controls and mice following one semaglutide dose administration (0.25 µg/g) with or without glucose supplementation, intraperitoneally or subcutaneously to determine the best route of administration. Blood samples were collected via cardiac puncture at 0.5 h, 2 h, 24 h, 7 days, and 14 days for glucose test. Brains of P10 naive mice or treated at the different time points were collected (n = 4 per group). All samples were processed using […] as per manufacturer’s instructions (Abcam).

[3] = test system: P10 CD1 mice with surgically induced HI; test: Mortality after semaglutide in neonatal mice with HI; assay type: in vivo; conditions: semaglutide 0.5 µg/g (500 µg/kg), no glucose
Description: as §1
The body temperature was maintained using a heating mat. […] The pups were then immediately returned to the dam. […] 1% mortality was observed following this procedure. […] The study design is illustrated in Fig. EV1.

[4] = test system: pGSK3β-S9; test: pGSK3β-S9 protein level in brain (western blot) after HI
Description: Tissues were homogenized (Ultra-Turrax TP, IKA Labortechnik, Wasserburg, Germany) on ice in 300 ml of RIPA lysis buffer (Thermo) per 100 mg of tissue with 1X protease inhibitor cocktail (Thermo) and incubated for 30 min. Lysates were centrifuged at 14,000 × g, 4 °C for 20 min and overall protein concentrations of the supernatant were determined by Pierce BCA Protein Assay (Life Technologies). […] Proteins were transferred to PDVF membrane at 400 mA for 1 h and membrane was blocked for 1 h at 4 °C with 5% BSA in TBS with 3% Tween-20. Membranes were subsequently incubated overnight at 4 °C with primary antibodies (Appendix Table S2) with 3% BSA in TBS with 3% Tween-20. […] Blots were developed with the ECL system (SuperSignal West Pico, Life Technologies) and imaged using a Genegnome imager (Syngene, Cambridge, UK).
All experiments involved litters of postnatal day 10 CD1 mice (P10) bred in-house. […] This was achieved using heating mats, heated incubators and prompt returning of pups to the dam. […] The left common carotid artery was permanently occluded with 8/0 polypropylene suture and the wound closed with tissue glue. The body temperature was maintained using a heating mat. The mice recovered in an incubator at 37 °C and were returned to the dam for 1 h. […] The pups were then immediately returned to the dam. […] All treatments were administered immediately after HI via intraperitoneal administration. […] Treated animal were culled at either 48 h post HI for ST studies or 60 days post HI for LT studies.

[5] = test system: human GLP1-R; test: GLP1-R activation, luciferase reporter in GLP1-R/pCRE-luciferase/CHO-K1 cells; assay type: cell-based; conditions: exendin-9 (500 nM) with 1 μM semaglutide or exendin-4
Description: For biological evaluation of GLP-1/Fc for human GLP1-R activation, GLP1-R/pCRE-Luciferase-co-expressed CHO cell lines were established using the lipofectamine method. […] Using a luciferase assay system (Promega – E1500), activity of the GLP1 receptor can be assessed following treatment with GLP1-R agonists for 24 h in 96-well plates.

[6] = test system: HIF-1-α; test: HIF-1-α expression (qPCR) in primary neurons exposed to OGD; assay type: cell-based, CD1 mice; conditions: p < 0.0001 exendin-4, p < 0.0001 semaglutide
Description: (§2) Cells were plated at a density of 2 × 10^6 cells/6 cm plate and propagated. At DIV 10–12, neurons were subjected to oxygen–glucose deprivation (OGD) in neurobasal-A medium lacking glucose and incubated in a hypoxia chamber (Billups-Rothenburg Inc., Del Mar, CA, USA) filled with an anoxic atmosphere of 5% CO2 balanced in nitrogen at 37 °C for 2 h. […] Culture medium was assayed after 24 h.
(§3) RNA from neuron cultures or brains was extracted and isolated using RNeasy Mini kit (Qiagen) and first-strand cDNA was generated using High-Capacity cDNA Reverse Transcription kit (Applied Biosystems). Quantitative RT-PCR was carried out using a StepOnePlus (Applied Biosystems) with the SsoAdvanced™ Universal SYBR Green PCR Core Reagents Supermix (Bio-Rad). Primers sequences were designed to detect GLP1-R, CREB, GSK3β, il-10, IL-4, IL-1β, ATF-3, Bcl-2, Bcl-xL (Appendix Table S1). Data from StepOne™ software v2.3 were calibrated to Gapdh, and the relative quantitation of gene expression was performed using the comparative CT method.

[7] = test system: ATF-3; test: ATF-3 expression (qPCR, immunofluorescence) in primary neurons exposed to OGD; assay type: cell-based, CD1 mice
Description: as §2, §3
Neuronal cultures (n = 6 per group) were stained by simultaneous overnight incubation with ATF-3 and anti-NeuN antibodies (Appendix Table S2). Representative images were captured using a Zeiss LSM710 confocal microscope and Zen software (Carl Zeiss AG). […] All images were processed using Imaris v.9.1 (Bitplane AG).

[8] = test system: CREB; test: CREB expression (qPCR) in primary neurons exposed to OGD; assay type: cell-based, CD1 mice; conditions: p = 0.0016 exendin-4, p = 0.0002 semaglutide
Description: as §2, §3

[9] = test system: caspase 3; test: Caspase 3 activity in primary neurons exposed to OGD; assay type: cell-based, CD1 mice
Description: as §2
Culture medium was assayed after treatment at 24 h post-OGD. All samples were processed using Multiplex caspases 3, 8 and 9 activity assay kit as per manufacturer’s instructions (Abcam – Ab219915).

| Compound | blood-brain barrier crossing ([1]; IP, naïve neonatal mice) | entry into the brain and GLP1-R activation, IP vs SC ([1]; p < 0.0001 at 30 mins, p = 0.0024 at 2 h) | blood glucose ([2]; 0.5 µg/g IP, 30 min, p = 0.0002) | blood glucose ([2]; 0.5 µg/g IP, 2 h, p = 0.0003) | blood glucose ([2]; 0.5 µg/g IP, 24 h, p = 0.0003) | blood glucose ([2]; 0.5 µg/g SC, 2 h, p = 0.0180) | blood glucose ([2]; 0.5 µg/g SC, 24 h, p = 0.0289) | hypoglycaemia with oral glucose supplementation ([2]; 2 mg/g oral glucose, semaglutide 0.5 µg/g) | fall in blood glucose ([2]; intraperitoneal, high dose in HI neonatal mice) | mortality / recovery after HI surgery [3] | pGSK3β-S9 protein level ([4]; after HI, western blot, relative to β-actin, single animals, n = 4) | pGSK3β-S9 protein level vs HI saline ([4]; p = 0.0001 both) | effect of antagonist on agonist-induced luciferase expression [5] | HIF-1-α expression vs OGD [6] | ATF-3 average expression/GAPDH ([7]; OGD neurons, treatment 2 h after OGD, qPCR, single samples, n = 3, listed as Ex-9) | ATF-3 expression vs OGD ([7]; qPCR and immunofluorescence, p = 0.0378 exendin-4, p = 0.0226 semaglutide) | CREB expression vs OGD [8] | Caspase 3 activity ([9]; 24 h post-OGD, single replicates, n = 5, listed as Ex-9) | effect of antagonist on anti-apoptotic effects of exendin-4 and semaglutide ([9]; Bcl-xL, Bcl-2, caspases 3, 8, 9) |
| --- | --- | --- | --- | --- | --- | --- | --- | --- | --- | --- | --- | --- | --- | --- | --- | --- | --- | --- | --- |
| CC[C@H](C)[C@H](NC(=O)[C@H](Cc1ccccc1)NC(=O)[C@H](CCC(=O)O)NC(=O)[C@H](CCCCNC(=O)COCCOCCNC(=O)COCCOCCNC(=O)CC[C@H](NC(=O)CCCCCCCCCCCCCCCCC(=O)O)C(=O)O)NC(=O)[C@H](C)NC(=O)[C@H](C)NC(=O)[C@H](CCC(N)=O)NC(=O)CNC(=O)[C@H](CCC(=O)O)NC(=O)[C@H](CC(C)C)NC(=O)[C@H](Cc1ccc(O)cc1)NC(=O)[C@H](CO)NC(=O)[C@H](CO)NC(=O)[C@@H](NC(=O)[C@H](CC(=O)O)NC(=O)[C@H](CO)NC(=O)[C@@H](NC(=O)[C@H](Cc1ccccc1)NC(=O)[C@@H](NC(=O)CNC(=O)[C@H](CCC(=O)O)NC(=O)C(C)(C)NC(=O)[C@@H](N)Cc1cnc[nH]1)[C@@H](C)O)[C@@H](C)O)C(C)C)C(=O)N[C@@H](C)C(=O)N[C@@H](Cc1c[nH]c2ccccc12)C(=O)N[C@@H](CC(C)C)C(=O)N[C@H](C(=O)N[C@@H](CCCNC(=N)N)C(=O)NCC(=O)N[C@@H](CCCNC(=N)N)C(=O)NCC(=O)O)C(C)C [semaglutide] | cross the blood-brain barrier | more rapid when the agonist was given IP compared with subcutaneously | Statistically significant hypoglycaemia | Statistically significant hypoglycaemia | Statistically significant hypoglycaemia | Statistically significant hypoglycaemia | Statistically significant hypoglycaemia | completely compensated for by oral supplementation with 2 mg/g glucose | drop significantly within 30 min | increased mortality; also recorded: some mice did not recover from HI surgery | 0.3664 and 0.5017 and 0.5395 and 0.3157 | modulated |  |  |  |  |  |  |  |
| exendin 9-39 [exendin-9] |  |  |  |  |  |  |  |  |  |  |  |  | inhibited | inhibited this improvement | 21.697 and 22.687 and 26.651 | inhibited this effect | blocked this effect | 1.4812 and 1.737 and 1.2406 and 1.699 and 1.511 | inhibited the anti-apoptotic effects |
